Paper PMC4875834 (The Biochemical journal, 2016)

Molecular target: T1, DC-SIGN (Homo sapiens, UniProt Q9NNX6)
T1 sequence (Q9NNX6 62-404): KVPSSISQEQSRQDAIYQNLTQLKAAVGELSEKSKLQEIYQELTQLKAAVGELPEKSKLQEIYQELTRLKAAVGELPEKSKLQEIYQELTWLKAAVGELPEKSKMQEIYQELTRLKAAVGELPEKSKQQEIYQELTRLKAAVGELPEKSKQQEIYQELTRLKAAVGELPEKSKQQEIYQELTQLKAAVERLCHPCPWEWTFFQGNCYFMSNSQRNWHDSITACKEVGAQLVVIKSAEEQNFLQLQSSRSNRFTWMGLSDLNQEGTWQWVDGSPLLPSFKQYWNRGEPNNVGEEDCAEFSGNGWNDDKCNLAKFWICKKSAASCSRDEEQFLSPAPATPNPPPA
Test: free-glycan inhibition of DC-SIGN binding to HMG microarrays

`C[C@@H]1O[C@@H](O[C@H]2[C@H](O[C@H]3[C@H](O)[C@@H](O)C(O)O[C@@H]3CO)O[C@H](CO)[C@H](O)[C@@H]2O)[C@@H](O)[C@H](O)[C@@H]1O` (stereo partly shown) [2′-FL, 2′-fucosyllactose] gave an IC50 of roughly 1 mM.
